15 compounds from patent publication US20250214991A1 (Oncopia Therapeutics, Inc. d/b/a/ SK Life Science Labs, priority 2022, published 2025) can be followed below.

Structures are written as SMILES. Structures can show the parent of a compound that is named as a salt. Where two headings read alike, the source gives them in different places.

What all share (assay type): cell-based
The target in test [1] is IKZF1 (Homo sapiens (Human), UniProt Q13422+Q96SW2). The experiment in a line: In vitro IKZF1 HiBit Assay (HEK293T Flp-in-HiBiT-IKZF1 stable cell line). In short, it runs like this:
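HEK293T Flp-in cells carrying N-terminal HiBiT-tagged IKZF1 were exposed to compound (0.1% DMSO) for 6 h at 3000 cells/well. HiBiT luminescence was read after lytic LgBiT detection. DC50 and Dmax were taken from DMSO-normalized dose-response curves.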
For orientation: HiBiT is a short tag that completes a luciferase, so light tracks the accessible tagged protein.

Test [2] deals with T1, IKZF2 (Homo sapiens (Human), UniProt Q96SW2+Q9UKS7). Description: In vitro IKZF2 HiBit Assay (HEK293T Flp-in-HiBiT cells). In short, it runs like this:
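HEK293T Flp-in cells carrying an endogenous N-terminal HiBiT tag on IKZF2 were exposed to compound for 6 h at 0.1% DMSO. The dilution series was 11 doses at 3-fold, diluted from 1 mM. Nano-Glo HiBiT lytic luminescence, normalized to DMSO, gave DC50 for 50% degradation and Dmax across the concentration range, both reported in letter bins.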

Test [3] concerns the target T1, IKZF2. The experiment in a line: In vitro IKZF2 FACS Assay in Jurkat cells. To be noted: 24 hrs; for DC50: half maximal degradation concentration; for Dmax: maximal degradation percentage. Here is the method: In vitro IKZF2 FACS Assay
DC50, A: <1 nM; B: 1-10 nM; C: 10-100 nM; D: 100-1000 nM; E: >1000 nM. Dmax, A: >80%; B: 60-80%; C: 40-60%; D: 20-40%; E: <20%.

Setting [4] is: HEK293T Flp-in-HiBiT-IKZF1 stable cell line, 6 hrs incubation; read-out: IKZF1 HiBit DC50.
[5] abbreviates: HEK-293T; HEK293T Flp-in-HiBiT-IKZF1 stable cell line, 6 hrs incubation; read-out: IKZF1 HiBit Dmax (%).
The mark [6] stands for this setting: HEK293T Flp-in-HiBiT cells, 6 hrs incubation; read-out: IKZF2 HiBit DC50.
The mark [7] stands for this setting: HEK-293T; HEK293T Flp-in-HiBiT cells, 6 hrs incubation; read-out: IKZF2 HiBit Dmax (%).

T1 sequence (Q9UKS7 whole entry): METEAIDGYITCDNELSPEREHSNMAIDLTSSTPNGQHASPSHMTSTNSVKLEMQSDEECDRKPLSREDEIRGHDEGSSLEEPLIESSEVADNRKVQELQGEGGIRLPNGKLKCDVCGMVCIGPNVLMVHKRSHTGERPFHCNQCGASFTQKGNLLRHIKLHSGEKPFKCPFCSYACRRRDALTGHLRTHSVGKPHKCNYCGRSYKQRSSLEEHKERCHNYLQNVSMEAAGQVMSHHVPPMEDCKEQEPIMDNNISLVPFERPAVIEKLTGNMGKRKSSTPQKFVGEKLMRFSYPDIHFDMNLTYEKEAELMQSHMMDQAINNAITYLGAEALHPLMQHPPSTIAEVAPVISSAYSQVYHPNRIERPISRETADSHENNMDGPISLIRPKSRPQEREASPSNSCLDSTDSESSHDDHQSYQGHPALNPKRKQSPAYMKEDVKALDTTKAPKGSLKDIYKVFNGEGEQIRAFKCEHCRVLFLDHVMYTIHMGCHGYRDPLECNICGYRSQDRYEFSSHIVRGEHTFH
T1 sequence (Q96SW2 whole entry): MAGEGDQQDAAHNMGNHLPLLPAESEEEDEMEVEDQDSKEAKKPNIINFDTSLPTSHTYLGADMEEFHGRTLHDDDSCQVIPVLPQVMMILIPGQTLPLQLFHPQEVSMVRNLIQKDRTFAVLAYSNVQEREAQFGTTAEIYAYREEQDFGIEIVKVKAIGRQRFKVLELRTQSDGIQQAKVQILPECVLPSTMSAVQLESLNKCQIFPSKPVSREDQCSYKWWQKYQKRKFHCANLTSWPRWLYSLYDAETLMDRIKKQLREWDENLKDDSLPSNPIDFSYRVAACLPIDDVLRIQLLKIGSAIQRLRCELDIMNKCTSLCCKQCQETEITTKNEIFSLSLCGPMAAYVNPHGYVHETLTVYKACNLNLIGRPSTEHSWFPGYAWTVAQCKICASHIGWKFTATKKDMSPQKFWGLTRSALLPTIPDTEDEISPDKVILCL
T1 sequence (Q16531 2-1140 partner): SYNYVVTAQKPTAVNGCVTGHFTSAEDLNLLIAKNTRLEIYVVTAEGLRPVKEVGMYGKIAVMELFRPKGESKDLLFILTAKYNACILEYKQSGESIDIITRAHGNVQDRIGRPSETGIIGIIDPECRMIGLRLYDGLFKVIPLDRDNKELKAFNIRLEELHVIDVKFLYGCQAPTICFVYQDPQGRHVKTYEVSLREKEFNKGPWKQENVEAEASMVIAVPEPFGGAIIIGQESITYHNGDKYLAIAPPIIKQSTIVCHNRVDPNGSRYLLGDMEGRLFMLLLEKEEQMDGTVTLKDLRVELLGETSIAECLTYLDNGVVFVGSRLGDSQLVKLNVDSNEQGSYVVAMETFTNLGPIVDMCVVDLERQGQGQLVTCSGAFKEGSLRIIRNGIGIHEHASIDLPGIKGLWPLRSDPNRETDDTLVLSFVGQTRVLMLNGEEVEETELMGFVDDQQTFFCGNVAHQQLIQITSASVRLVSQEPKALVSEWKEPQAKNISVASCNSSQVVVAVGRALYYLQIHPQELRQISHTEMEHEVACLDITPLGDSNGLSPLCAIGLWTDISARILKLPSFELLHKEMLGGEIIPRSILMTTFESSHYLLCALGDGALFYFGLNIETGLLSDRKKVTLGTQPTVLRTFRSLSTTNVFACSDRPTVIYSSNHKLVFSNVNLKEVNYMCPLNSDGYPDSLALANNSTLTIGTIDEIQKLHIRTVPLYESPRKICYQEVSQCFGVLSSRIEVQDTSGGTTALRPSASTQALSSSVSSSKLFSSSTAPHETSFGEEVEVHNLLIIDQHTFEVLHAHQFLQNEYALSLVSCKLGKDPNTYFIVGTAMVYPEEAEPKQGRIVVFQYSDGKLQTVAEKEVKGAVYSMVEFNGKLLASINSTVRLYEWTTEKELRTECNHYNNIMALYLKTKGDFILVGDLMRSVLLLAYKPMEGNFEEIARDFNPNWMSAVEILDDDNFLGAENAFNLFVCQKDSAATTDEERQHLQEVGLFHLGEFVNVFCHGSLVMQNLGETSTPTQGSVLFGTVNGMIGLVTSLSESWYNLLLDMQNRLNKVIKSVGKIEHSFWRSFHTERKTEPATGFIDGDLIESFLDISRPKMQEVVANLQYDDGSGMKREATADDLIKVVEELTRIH
Sequence of IKZF1 (Q13422 whole entry): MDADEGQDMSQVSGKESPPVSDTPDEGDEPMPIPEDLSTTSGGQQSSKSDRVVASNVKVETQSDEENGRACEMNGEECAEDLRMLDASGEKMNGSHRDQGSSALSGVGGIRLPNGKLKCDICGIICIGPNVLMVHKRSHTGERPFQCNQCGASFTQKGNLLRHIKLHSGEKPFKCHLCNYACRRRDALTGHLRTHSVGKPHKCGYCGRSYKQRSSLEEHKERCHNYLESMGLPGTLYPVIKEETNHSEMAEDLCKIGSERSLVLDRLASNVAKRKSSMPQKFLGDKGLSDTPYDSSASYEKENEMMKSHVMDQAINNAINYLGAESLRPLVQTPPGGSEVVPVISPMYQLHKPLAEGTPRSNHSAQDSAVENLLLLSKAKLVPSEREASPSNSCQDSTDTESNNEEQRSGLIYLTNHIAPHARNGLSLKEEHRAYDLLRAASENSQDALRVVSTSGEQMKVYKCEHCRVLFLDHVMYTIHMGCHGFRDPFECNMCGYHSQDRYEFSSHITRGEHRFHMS
Sequence of IKZF1 (Q96SW2 whole entry): as the sequence (Q96SW2 whole entry) above
Sequence of IKZF1 (Q16531 2-1140 partner): as the sequence (Q16531 2-1140 partner) above

In the case of `COC1CCN(Cc2cc(-c3ccc4c(c3F)CN(C3CCC(=O)NC3=O)C4=O)nc3c2ccn3C2CS(=O)(=O)C2)CC1` (stereo not drawn) [Example 266, 3-(5-(1-(1,1-dioxidothietan-3-yl)-4-((4-methoxypiperidin-1-yl)methyl)-1H-pyrrolo[2,3-b]pyridin-6-yl)-4-fluoro-1-oxoisoindolin-2-yl) piperidine-2,6-dione formate], the DC50 in test [1] (setting [4]) lay in the range of 0.01 to 0.1 µM; in test [2] (setting [6]), 0.001 to 0.01 µM; in test [3], 0.001 to 0.01 µM. The values for the Dmax in test [1] (setting [5]), in test [2] (setting [7]) and in test [3] were 40 to 60%, above 80% and above 80%, respectively.

On to `O=C1CCC(N2Cc3c(ccc(-c4nc5c(ccn5C5COC5)c(CN5CCCC5)c4Cl)c3F)C2=O)C(=O)N1` (stereo not drawn) [Example 270, 3-(5-(5-chloro-1-(oxetan-3-yl)-4-(pyrrolidin-1-ylmethyl)-1H-pyrrolo[2,3-b]pyridin-6-yl)-4-fluoro-1-oxoisoindolin-2-yl) piperidine-2,6-dione], for which the DC50 was above 10 µM in test [1] (setting [4]), below 0.001 µM in test [2] (setting [6]) and 0.001 to 0.01 µM in test [3]. Besides, the Dmax in test [1] (setting [5]) is below 20%; in test [2] (setting [7]), above 80%; in test [3], above 80%.

With `CN1CC(n2ncc3c(CN4CCCC4)cc(-c4ccc5c(c4)CN(C4CCC(=O)NC4=O)C5=O)nc32)C1` (stereo not drawn) [Example 261, 3-(5-(1-(1-methylazetidin-3-yl)-4-(pyrrolidin-1-ylmethyl)-1H-pyrazolo[3,4-b]pyridin-6-yl)-1-oxoisoindolin-2-yl) piperidine-2,6-dione], the DC50 in test [1] (setting [4]) lay in the range of 0.01 to 0.1 µM; in test [2] (setting [6]), 0.001 to 0.01 µM; in test [3] it was 0.001 to 0.01 µM. The Dmax was 60 to 80% in test [1] (setting [5]), above 80% in test [2] (setting [7]) and above 80% in test [3].

Take `CC1c2cc(-c3cc(CN4CCCC4)c4ccn(C5CS(=O)(=O)C5)c4n3)ccc2C(=O)N1C1CCC(=O)NC1=O` (stereo not drawn) [Example 292, 3-(5-(1-(1,1-dioxidothietan-3-yl)-4-(pyrrolidin-1-ylmethyl)-1H-pyrrolo[2,3-b]pyridin-6-yl)-3-methyl-1-oxoisoindolin-2-yl) piperidine-2,6-dione]: the figures for the DC50 in test [1] (setting [4]), in test [2] (setting [6]) and in test [3] were 0.01 to 0.1 µM, 0.001 to 0.01 µM and 0.001 to 0.01 µM, respectively. Moreover, the results for the Dmax in test [1] (setting [5]), in test [2] (setting [7]) and in test [3] were 20 to 40%, above 80% and above 80%, respectively.

In the case of `CC1(C)CCCN1Cc1cc(-c2ccc3c(c2)CN(C2CCC(=O)NC2=O)C3=O)nc2c1ccn2C1COC1` (stereo not drawn) [Example 254, 3-(5-(4-((2,2-dimethylpyrrolidin-1-yl)methyl)-1-(oxetan-3-yl)-1H-pyrrolo[2,3-b]pyridin-6-yl)-1-oxoisoindolin-2-yl) piperidine-2,6-dione], the Dmax in test [1] (HEK-293T, read-out: IKZF1 HiBit Dmax (%)) is below 20%; in test [2] (HEK-293T, read-out: IKZF2 HiBit Dmax (%)), 60 to 80%; in test [3], 60 to 80%. The DC50 in test [1] (read-out: IKZF1 HiBit DC50; HEK293T Flp-in-HiBiT-IKZF1 stable cell line, 6 hrs incubation) was above 10 µM; in test [2] (read-out: IKZF2 HiBit DC50; HEK293T Flp-in-HiBiT cells, 6 hrs incubation), 0.001 to 0.01 µM; in test [3], 0.01 to 0.1 µM.

For the compound `CC(C)Nc1n[nH]c2c(CN3CC4COCC4C3)cc(-c3ccc4c(c3F)CN(C3CCC(=O)NC3=O)C4=O)nc12` (stereo not drawn) [Example 288, 3-(4-fluoro-5-(3-(isopropylamino)-7-((tetrahydro-1H-furo[3,4-c]pyrrol-5 (3H)-yl)methyl)-1H-pyrazolo[4,3-b]pyridin-5-yl)-1-oxoisoindolin-2-yl) piperidine-2,6-dione], the DC50 is above 10 µM in test [1] (setting [4]), 0.001 to 0.01 µM in test [2] (setting [6]) and 0.01 to 0.1 µM in test [3]. For the same compound, the figures for the Dmax in test [1] (setting [5]), in test [2] (setting [7]) and in test [3] were below 20%, above 80% and 60 to 80%, respectively.

As for `CC1c2cc(-c3cc(CN4CCCC4)c4ccn(C5COC5)c4n3)ccc2C(=O)N1C1CCC(=O)NC1=O` (stereo not drawn) [Example 276, 3-(3-methyl-5-(1-(oxetan-3-yl)-4-(pyrrolidin-1-ylmethyl)-1H-pyrrolo[2,3-b]pyridin-6-yl)-1-oxoisoindolin-2-yl) piperidine-2,6-dione], the DC50 in test [1] (setting [4]) is above 10 µM; in test [2] (setting [6]), 0.001 to 0.01 µM; in test [3], 0.001 to 0.01 µM. The Dmax was below 20% in test [1] (setting [5]), above 80% in test [2] (setting [7]) and above 80% in test [3].

In the case of `CO[C@H]1C[C@H](Oc2ccnc3c(CN4CCCC4)cc(-c4ccc5c(c4)CN(C4CCC(=O)NC4=O)C5=O)nc23)C1` (stereo partly drawn) [Example 280, 3-(5-(8-((1r,3r)-3-methoxycyclobutoxy)-4-(pyrrolidin-1-ylmethyl)-1,5-naphthyridin-2-yl)-1-oxoisoindolin-2-yl) piperidine-2,6-dione], the results for the DC50 in test [1] (setting [4]), in test [2] (setting [6]) and in test [3] were above 10 µM, 0.01 to 0.1 µM and 0.01 to 0.1 µM, respectively. Moreover, the Dmax in test [1] (setting [5]) is below 20%; in test [2] (setting [7]), 60 to 80%; in test [3], 60 to 80%.

`CC(C)Nc1n[nH]c2c(CN3CCC(C(F)(F)F)CC3)cc(-c3ccc4c(c3F)CN(C3CCC(=O)NC3=O)C4=O)nc12` (stereo not drawn) [Example 290, 3-(4-fluoro-5-(3-(isopropylamino)-7-((4-(trifluoromethyl)piperidin-1-yl)methyl)-2H-pyrazolo[4,3-b]pyridin-5-yl)-1-oxoisoindolin-2-yl) piperidine-2,6-dione]: the results for the DC50 in test [1] (setting [4]), in test [2] (setting [6]) and in test [3] were above 10 µM, 0.001 to 0.01 µM and 0.01 to 0.1 µM, respectively. In addition, the Dmax in test [1] (setting [5]) is below 20%; in test [2] (setting [7]), 60 to 80%; in test [3], 60 to 80%.

For `CCNc1n[nH]c2c(CN3CCCC3)cc(-c3ccc4c(c3F)CN(C3CCC(=O)NC3=O)C4=O)nc12` (stereo not drawn) [Example 291, 3-(5-(3-(ethylamino)-7-(pyrrolidin-1-ylmethyl)-1H-pyrazolo[4,3-b]pyridin-5-yl)-4-fluoro-1-oxoisoindolin-2-yl) piperidine-2,6-dione], the values for the DC50 in test [1] (setting [4]), in test [2] (setting [6]) and in test [3] were 0.01 to 0.1 µM, below 0.001 µM and below 0.001 µM, respectively. Moreover, the Dmax in test [1] (setting [5]) was 40 to 60%; in test [2] (setting [7]), above 80%; in test [3] it was above 80%.

`O=C1CCC(N2Cc3c(ccc(-c4cc(CN5CCC(F)CC5)c5ccn(C6CS(=O)(=O)C6)c5n4)c3F)C2=O)C(=O)N1` (stereo not drawn) [Example 268, 3-(5-(1-(1,1-dioxidothietan-3-yl)-4-((4-fluoropiperidin-1-yl)methyl)-1H-pyrrolo[2,3-b]pyridin-6-yl)-4-fluoro-1-oxoisoindolin-2-yl) piperidine-2,6-dione]: the DC50 in test [1] (setting [4]) was 0.01 to 0.1 µM; in test [2] (setting [6]), below 0.001 µM; in test [3], 0.001 to 0.01 µM. Besides, the figures for the Dmax in test [1] (setting [5]), in test [2] (setting [7]) and in test [3] were 40 to 60%, above 80% and above 80%, respectively.

For `CC(C)Nc1n[nH]c2c(CN3CCC4(CC3)COC4)cc(-c3ccc4c(c3F)CN(C3CCC(=O)NC3=O)C4=O)nc12` (stereo not drawn) [Example 284, 3-(5-(7-((2-oxa-7-azaspiro[3.5]nonan-7-yl)methyl)-3-(isopropylamino)-1H-pyrazolo[4,3-b]pyridin-5-yl)-4-fluoro-1-oxoisoindolin-2-yl) piperidine-2,6-dione], the DC50 in test [1] (setting [4]) lay within 0.01 to 0.1 µM; in test [2] (setting [6]), 0.001 to 0.01 µM; in test [3], 0.01 to 0.1 µM. The Dmax in test [1] (setting [5]) was 20 to 40%; in test [2] (setting [7]), above 80%; in test [3], 60 to 80%.

With `COC1CCN(Cc2cc(-c3ccc4c(c3F)CN(C3CCC(=O)NC3=O)C4=O)nc3c(NC(C)C)n[nH]c23)CC1` (stereo not drawn) [Example 283, 3-(4-fluoro-5-(3-(isopropylamino)-7-((4-methoxypiperidin-1-yl)methyl)-1H-pyrazolo[4,3-b]pyridin-5-yl)-1-oxoisoindolin-2-yl) piperidine-2,6-dione], the DC50 in test [1] (setting [4]) is above 10 µM; in test [2] (setting [6]) it was 0.001 to 0.01 µM; in test [3], 0.001 to 0.01 µM. Further, the Dmax in test [1] (setting [5]) was below 20%; in test [2] (setting [7]), above 80%; in test [3] it was above 80%.

Turning to `O=C1CCC(N2Cc3cc(-c4cc(CN5CCCC5)c5nccc(OC(F)F)c5n4)ccc3C2=O)C(=O)N1` (stereo not drawn) [Example 249, 3-(5-(8-(difluoromethoxy)-4-(pyrrolidin-1-ylmethyl)-1,5-naphthyridin-2-yl)-1-oxoisoindolin-2-yl) piperidine-2,6-dione], the DC50 in test [1] (setting [4]) is above 10 µM; in test [2] (setting [6]) it was 0.001 to 0.01 µM; in test [3], 0.001 to 0.01 µM. Moreover, the values for the Dmax in test [1] (setting [5]), in test [2] (setting [7]) and in test [3] were below 20%, above 80% and above 80%, respectively.

`CCNc1n[nH]c2c(CN3CCCC3)cc(-c3ccc4c(c3)CN(C3CCC(=O)NC3=O)C4=O)nc12` (stereo not drawn) [Example 199, 3-(5-(3-(ethylamino)-7-(pyrrolidin-1-ylmethyl)-1H-pyrazolo[4,3-b]pyridin-5-yl)-1-oxoisoindolin-2-yl) piperidine-2,6-dione]: the DC50 in test [1] (setting [4]) fell in the range of 0.01 to 0.1 µM; in test [2] (setting [6]), 0.001 to 0.01 µM; in test [3], 0.01 to 0.1 µM. The Dmax in test [1] (setting [5]) was 20 to 40%; in test [2] (setting [7]), above 80%; in test [3], 60 to 80%.
